Patent publication US7855200B2, “Method for treatment of gastric ulcers and ulcers induced by aspirin” (Council of Scientific and Industrial Research, priority 2006, dated 2010)
Several values for one entry are separate records, joined by “and”; a condition that tells them apart may be missing. Equal entries are not always repeated.

Assays:
Type in all cases: in vivo, albino rats
[1] = tested on: acetyl salicylic acid induced gastric lesions; assay: Acetyl salicylic acid (aspirin) induced gastric ulcer; parameters: Ulcer index Mean(SE): scale not given here; conditions: rats, 25 mg/kg per orally daily for five days, aspirin 200 mg/kg; for inhibition at 25 mg/kg: Rattus norvegicus, po, 120 h
Procedure: Stress induced gastric ulceration The commercially available drug ranitidine (sigma), Omeprazole (sigma) and sucralfate (Merck) were used as reference standard in experimental models. The Tween-80 (SD fine chemicals) was used as vehicle for the administration of the drug, which is used as control. Antiulcer activity of the compounds under taken was studied. The animals were divided into 20 groups of 6 animals each. Group 1 received the vehicle Tween 80 (1%, 1 ml) which served as the control. Group 2 received ranitidine at a dose of 50-mg/kg body weight, which served as standard for comparison. Group 3 to 20 at a dose of 25 mg/kg body weight. Rats were administered per orally with a daily dose of the compounds and the drug ranitidine for a period of five days and then fasted for 24 hours. The […] acetyl salicylic acid (aspirin) at a dose of 200 mg/kg body weight was administered as a suspension in tween-80 (1%), 30 min after the drug administration each day. All drugs were administered orally on the 6th day after the last administration of the drugs and the ulcer inducing agent aspirin, the rats were killed by cervical dislocation and their stomach were opened along the greater curvature and washed with luke warm saline and examined under a dissecting microscope. The ulcer index was calculated for each stomach. […] The antiulcer activity of the compounds was studied. The animals were divided into 19 groups of 6 animals each. Group 1 received the vehicle Tween 80 (1%, 1 ml) which served as the control. Group 2 received ranitidine at a dose of 50-mg/kg-body weight, which served as standard for comparison. […] Rats were administered per orally with a daily dose of the compounds and the drug ranitidine to respective groups for a period of five days and then fasted for 24 hours. The […] acetyl salicylic acid (aspirin) at a dose of 200 mg/kg body weight was administered as a suspension in tween-80 (1%), 30 min after the drug administration each day. All drugs were administered orally on ht […] day after the last administration of the drugs and the ulcer inducing agent aspirin, the rats were killed by cervical dislocation and their stomach were opened along the greater curvature and washed with luke warm saline and examined under a dissecting microscope.

Pylorus ligated rats = assay: Pylorus ligated ulcers; conditions: 25 mg/kg, 4 hours after pylorus ligation; for inhibition at 25 mg/kg: Rattus norvegicus
Description: (§1) The compounds taken under study for antigastric ulcer screening by four different models were selected using experimental albino rats: • 1. Aspirin induced gastric ulceration • 2. Pylorus ligated gastric ulceration • 3. Ethanol induced gastric ulceration • 4. Stress induced gastric ulceration
(§2) The commercially available drug ranitidine (sigma), Omeprazole (sigma) and sucralfate (Merck) were used as reference standard in experimental models. The Tween-80 (SD fine chemicals) was used as vehicle for the administration of the drug, which is used as control.
The animals were divided into 19 groups of 6 animals each. Animals were deprived of food for 48 hours but had free access to water. Group 1 received the vehicle Tween 80 (1%, 1 ml) which served as the control. Group 2 received ranitidine at a dose of 50-mg/kg-body weight, which served as standard for comparison. […] After one hour of administration of drug the stomach was ligated at the pylorus under ether anesthesia. 4 hours after pylorus ligation, the animals were sacrificed and the contents drained and centrifuges at 5000 rpm for 10 minutes. Aliquots of supernatant were used for determination of total acid by titrating with 0.01N NaOH using topfers reagent and phenolphthalein indicators. 4.
The animals were divided into 7 groups of 6 animals each. Animals were deprived of food for 48 hours but had free access to water. Group 1 received the vehicle Tween 80 (1%, 1 ml) which served as the control. Group 2 received ranitidine at a dose of 50-mg/kg-body weight, which served as standard for comparison. Group 3 to 7 received at a dose of 50, 25, 15, 10 and 5 mg/kg body weight respectively. After one hour of administration of drug the stomach was ligated at the pylorus under ether anesthesia. 4 hours after pylorus ligation, the animals were sacrificed and the contents drained and centrifuges at 5000 rpm for 10 minutes. Aliquots of supernatant were used for determination of total acid by titrating with 0.01N NaOH using topfers reagent and phenolphthalein indicators.

[2] = tested on: gastric ulceration in cold restraint rats; assay: Cold restraint (stress) induced ulcers; parameters: Ulcer index Mean(SE): scale not given here; conditions: for inhibition at 25 mg/kg: po; for inhibition at 25 mg/kg / Ulcer index Mean(SE): rats, 4° C. for 2 hours
Description: as §1, §2
(§3) The antiulcer activity of the compounds was studied. The animals were divided into 21 groups of 7 animals each. Group 1 received the vehicle Tween 80 (1%, 1 ml) which served as the control. Group 2 received ranitidine at a dose of 50-mg/kg body weight, which served as standard for comparison. Group 3 to 21 at a dose of 25 mg/kg body weight. Animals were deprived of food 48 hours before the experiment. The water was allowed for free access. Rats were administered per orally with compounds and the drug ranitidine. The water was removed 1 hour before restraint and exposed to a temperature of 4° C. for 2 hours. Two hours after stress, the animals were sacrificed. The stressed animals were opened along the greater curvature and the severity of gastric ulcer was assessed in terms of mean ulcer index. 2.
as §3, with “8” for “21”, “6” for “7”, “50, 25, 15, 10 and 5” for “25”, “weight respectively.” for “weight.”, “index.” for “index. 2.”

[3] = tested on: ethanol induced gastric ulcers; assay: Ethanol induced ulcers; conditions: rats, ethanol challenge; for Acidity Total mEg / Gastric content / pH: 4 hours after pylorus ligation
Procedure: Stress induced gastric ulceration The commercially available drug ranitidine (sigma), Omeprazole (sigma) and sucralfate (Merck) were used as reference standard in experimental models. The Tween-80 (SD fine chemicals) was used as vehicle for the administration of the drug, which is used as control. The animals were divided into 22 groups of 6 animals each. Animals were deprived of food for 48 hours but had free access to water. Group 1 received the vehicle Tween 80 (1%, 1 ml) which served as the control. Group 2 received ranitidine at a dose of 50-mg/kg-body weight, which served as standard for comparison. Group 3 to received Omeprazole at a dose of 30-mg/kg body weight, which served as standard for comparison. Group 4 received sucralfate at a dose of 400-mg/kg body weight, which served as standard for comparison. Group 5 to 22 received at a dose of 25 mg/kg body weight. Lesions were induced 1 hour after ethanol challenge animals. The stomach was ligated at the pylorus under ether anesthesia. 4 hours after pylorus ligation, the animals were sacrificed and the contents drained and centrifuges at 5000 rpm for 10 minutes. Aliquots of supernatant were used for determination of total acid by titrating with 0.01N NaOH using topfers reagent and phenolphthalein indicators. […] The animals were divided into 9 groups of 6 animals each. Animals were deprived of food for 48 hours but had free access to water. Group 1 received the vehicle Tween 80 (1%, 1 ml) which served as the control. Group 2 received ranitidine at a dose of 50-mg/kg-body weight, which served as standard for comparison. Group 3 to received Omeprazole at a dose of 30-mg/kg body weight, which served as standard for comparison. Group 4 received sucralfate at a dose of 400-mg/kg body weight, which served as standard for comparison. […] Lesions were induced 1 hour after ethanol challenge animals. The stomach was ligated at the pylorus under ether anesthesia. 4 hours after pylorus ligation, the animals were sacrificed and the contents drained and centrifuges at 5000 rpm for 10 minutes. Aliquots of supernatant were used for determination of total acid by titrating with 0.01N NaOH using topfers reagent and phenolphthalein indicators.

[4] = Rattus norvegicus, 25 mg/kg per orally

Row | Molecule | inhibition at 25 mg/kg [1] [%] | Ulcer index Mean(SE) [1] | Acidity Total mEg (Pylorus ligated rats) | Gastric content (Pylorus ligated rats) | Ulcer index Mean(SE) (Pylorus ligated rats) | pH (Pylorus ligated rats) | inhibition at 25 mg/kg (Pylorus ligated rats) [%] | inhibition at 25 mg/kg [2, 4] [%] | Ulcer index Mean(SE) ([2]; 25 mg/kg per orally) | inhibition at 25 mg/kg ([3]; Rattus norvegicus, 25 mg/kg) [%] | Ulcer index Mean(SE) ([3]; 25 mg/kg) | Acidity Total mEg ([3]; 25 mg/kg) | Gastric content ([3]; 25 mg/kg) | pH ([3]; 25 mg/kg) | also measured
1 | O=c1cc(-c2ccccc2)oc2cc(O)c(O)c(O)c12 [Baicalein, 5,6,7-trihydroxy-2-phenyl-chromen-4-one] | 9.51 | 40.83 | 49.21 (±2.20) m Eg | 2.00 (±0.22) | 40.66 (±5.50) | 3.01 (±0.30) | 18.9 | 3.52 | 29.28 | 20 | 43.33 (±3.33) | 45.21 (±3.10) mEg | 3.5 (±0.20) | 3.33 (±0.10) | –
2 | O=c1cc(-c2ccccc2)oc2cc(OC3OC(CO)C(O)C(O)C3O)cc(O)c12 (stereo not drawn) [CG, 5-Hydroxy-2-phenyl-7-(3,4,5-trihydroxy-6-hydroxymethyl-tetrahydro-pyran-2-yloxy)-chromen-4-one] | 52 | 21.66 | 44.33 (±2.33) m Eg | 1.50 (±0.28) | 24.93 (±1.66) | 3.50 (±0.28) | 50.2 | 47.7 | 21.00 | 52.5 | 31.66 (±4.41) | 20.01 (±4.41) mEg | 5.90 (±0.49) | 5.90 (±0.49) | –
3 | O=c1cc(-c2ccccc2)oc2cc(OCCCN3CCOCC3)cc(O)c12 [CHM-2, 5-Hydroxy-7-(3-morpholin-4-yl-propoxy)-2-phenyl chromen-4-one] | 55.6 | 19.99 | 41.48 (±3.20) m Eg | 1.88 (±0.62) | 25.82 (±2.00) | 3.79 (±0.20) | 48.5 | 35.1 | 26.42 | 25 | 40.11 (±3.65) | 38.28 (±2.24) mEg | 2.8 (±0.72) | 4.00 (±0.18) | –
4 | O=c1cc(-c2ccccc2)oc2cc(OCCCCN3CCOCC3)cc(O)c12 [CHM-3, 5-Hydroxy-7-(4-morpholin-4-yl-butoxy)-2-phenyl chromen-4-one] | 51.7 | 21.77 | 44.10 (±2.20) m Eg | 2.24 (±0.22) | 27.46 (±3.00) | 3.41 (±0.16) | 45.2 | 52.6 | 19.28 | 36.2 | 42.50 (±3.81) | 37.10 (±0.60) mEg | 3.8 (±0.30) | 4.16 (±0.12) | –
5 | CN(C)CCCOc1cc(O)c2c(=O)cc(-c3ccccc3)oc2c1 [CHN-2, 7-(3-Dimethylamino-propoxy)-5-hydroxy-2-phenyl chromen-4-one] | 55.7 | 20.00 | 37.18 (±4.20) m Eg | 1.80 (±0.46) | 20.83 (±2.00) | 4.25 (±0.09) | 58.4 | 56.1 | 17.85 | 42.5 | 38.33 (±3.07) | 28.10 (±0.48) mEg | 3.2 (±0.42) | 5.14 (±0.36) | –
6 | CN1C(=O)CN=C(c2ccccc2)c2cc(Cl)ccc21 [Diazepam, reference compound] | – | – | – | – | – | – | – | – | – | – | – | – | – | – | inhibition at 1 mg/kg ([2]; Rattus norvegicus, 2 h): 75.4%; Ulcer index Mean(SE) ([2]; 1 mg/kg): 10.00
7 | COc1ccc2[nH]c([S+]([O-])Cc3ncc(C)c(OC)c3C)nc2c1 (stereo not drawn) [Omeprazole, reference compound] | – | – | – | – | – | – | – | – | – | – | – | – | – | – | inhibition at 30 mg/kg ([3]; Rattus norvegicus, 30 mg/kg): 67.5%; Ulcer index Mean(SE) ([3]; 30 mg/kg): 23.33 (±2.21); Gastric content ([3]; 30 mg/kg): 3.5 (±0.68); pH ([3]; 30 mg/kg): 4.65 (±0.19)
8 | sucralfate [reference compound] | – | – | – | – | – | – | – | – | – | – | – | – | – | – | Inhibition % ([3]; 400 mg/kg): 87.50%; Ulcer index Mean(SE) ([3]; 400 mg/kg): 08.33 (±2.23); Acidity Total mEg ([3]; 400 mg/kg): 58.00 (±2.30) mEg; Gastric content ([3]; 400 mg/kg): 3.01 (±0.48) and 3.0 (±0.48); pH ([3]; 400 mg/kg): 3.00 (±0.19)
